Activity calls are given as the source filed them. The calls are words filed in the database; no cut-off is given here.
Legend:
[1] = test system: Glutamate receptor ionotropic, NMDA 2B (Homo sapiens), Q13224 [D104A]; assay: Inhibition of NR2B receptor ATD D104A mutant expressed in Xenopus oocytes assessed as NMDA current at 0.5 mM relative to control; type: cell-based; conditions: Oocyte
[2] = Ratio of Kapp for wild type NR2B receptor to Kapp for NR2B receptor T647A/T103A mutant
[3] = test system: Glutamate receptor ionotropic, NMDA 2B (Homo sapiens), Q13224 [K234A]; assay: Binding affinity to NR2B receptor ATD K234A mutant
[4] = test system: Glutamate receptor ionotropic, NMDA 2B (Homo sapiens), Q13224 [T103A]; assay: Binding affinity to NR2B receptor ATD T103A mutant
[5] = Ratio of Kapp for wild type NR2B receptor to Kapp for NR2B receptor S645A/K234A mutant
[6] = test system: Glutamate receptor ionotropic, NMDA 2B (Homo sapiens), Q13224 [E657A]; assay: Inhibition of NR2B receptor post-M3 E657A mutant expressed in Xenopus oocytes assessed as NMDA current at 0.5 mM relative to control; type: cell-based; conditions: Oocyte
[7] = Ratio of Kapp for wild type NR2B receptor to Kapp for NR2B receptor ATD T103A mutant
[8] = Ratio of Kapp for wild type NR2B receptor to Kapp for ATD NR2B receptor F176A mutant
[9] = Ratio of Kapp for wild type NR2B receptor to Kapp for NR2B receptor L643A/T103A mutant
[10] = test system: Glutamate receptor ionotropic, NMDA 2B (Homo sapiens), Q13224 [L643A,S645A]; assay: Binding affinity to NR2B receptor L643A/S645A mutant
[11] = test system: Glutamate receptor ionotropic, NMDA 2B (Homo sapiens), Q13224 [T103A]; assay: Inhibition of NR2B receptor ATD T103A mutant expressed in Xenopus oocytes assessed as NMDA current at 0.5 mM relative to control; type: cell-based; conditions: Oocyte
[12] = test system: Glutamate receptor ionotropic, NMDA 2B (Homo sapiens), Q13224 [A644C]; assay: Inhibition of NR2B receptor M3c A644C mutant expressed in Xenopus oocytes assessed as NMDA current at 0.5 mM relative to control; type: cell-based; conditions: Oocyte
[13] = Binding affinity to NR2B receptor M3c […] mutant
[14] = test system: Glutamate receptor ionotropic, NMDA 2B (Homo sapiens), Q13224 [F176A]; assay: Inhibition of NR2B receptor ATD F176A mutant expressed in Xenopus oocytes assessed as NMDA current at 0.5 mM relative to control; type: cell-based; conditions: Oocyte
[15] = test system: Glutamate receptor ionotropic, NMDA 2B (Homo sapiens), Q13224 [V640A]; assay: Inhibition of NR2B receptor M3c V640A mutant expressed in Xenopus oocytes assessed as NMDA current at 0.5 mM relative to control; type: cell-based; conditions: Oocyte
[16] = Binding affinity to NR2B receptor […]/K234A mutant
[17] = test system: Glutamate receptor ionotropic, NMDA 2B (Homo sapiens), Q13224 [L643A,K234A]; assay: Binding affinity to NR2B receptor L643A/K234A mutant
[18] = test system: Glutamate receptor ionotropic, NMDA 2B (Homo sapiens), Q13224 [F554A]; assay: Inhibition of NR2B receptor Pre-M1 F554A mutant expressed in Xenopus oocytes assessed as NMDA current at 0.5 mM relative to control; type: cell-based; conditions: Oocyte
[19] = Ratio of Kapp for wild type NR2B receptor to Kapp for NR2B receptor L643A/T647A mutant
[20] = test system: Glutamate receptor ionotropic, NMDA 2B (Homo sapiens), Q13224 [E106A]; assay: Inhibition of NR2B receptor ATD E106A mutant expressed in Xenopus oocytes assessed as NMDA current at 0.5 mM relative to control; type: cell-based; conditions: Oocyte
[21] = test system: Glutamate receptor ionotropic, NMDA 2B (Homo sapiens), Q13224 [Y646A]; assay: Inhibition of NR2B receptor M3c Y646A mutant expressed in Xenopus oocytes assessed as NMDA current at 0.5 mM relative to control; type: cell-based; conditions: Oocyte
[22] = molecular target: Glutamate receptor ionotropic, NMDA 2B (Homo sapiens) (UniProt Q13224); assay: Binding affinity to NR2B receptor
[23] = test system: Glutamate receptor ionotropic, NMDA 2B (Homo sapiens), Q13224 [L643C,T647A]; assay: Binding affinity to NR2B receptor L643C/T647A mutant
[24] = Ratio of Kapp for wild type NR2B receptor to Kapp for NR2B receptor ATD D101A mutant
[25] = test system: Glutamate receptor ionotropic, NMDA 2B (Homo sapiens), Q13224 [L643A]; assay: Inhibition of NR2B receptor M3c L643A mutant expressed in Xenopus oocytes assessed as NMDA current at 0.5 mM relative to control; type: cell-based; conditions: Oocyte
[26] = test system: Glutamate receptor ionotropic, NMDA 2B (Homo sapiens), Q13224 [N542A]; assay: Inhibition of NR2B receptor Pre-M1 N542A mutant expressed in Xenopus oocytes assessed as NMDA current at 0.5 mM relative to control; type: cell-based; conditions: Oocyte
[27] = test system: Glutamate receptor ionotropic, NMDA 2B (Homo sapiens), Q13224 [A648C]; assay: Inhibition of NR2B receptor M3c A648C mutant expressed in Xenopus oocytes assessed as NMDA current at 0.5 mM relative to control; type: cell-based; conditions: Oocyte
[28] = Ratio of Kapp for wild type NR2B receptor to Kapp for NR2B receptor L643C/T647A mutant
[29] = Ratio of Kapp for wild type NR2B receptor to Kapp for NR2B receptor ATD E236A mutant
[30] = test system: Glutamate receptor ionotropic, NMDA 2B (Homo sapiens), Q13224 [L650A]; assay: Inhibition of NR2B receptor M3c L650A mutant expressed in Xenopus oocytes assessed as NMDA current at 0.5 mM relative to control; type: cell-based; conditions: Oocyte
[31] = test system: Glutamate receptor ionotropic, NMDA 2B (Homo sapiens), Q13224 [S645A,I641A]; assay: Binding affinity to NR2B receptor S645A/I641A mutant
[32] = Ratio of Kapp for wild type NR2B receptor to Kapp for NR2B receptor L643A/K234A mutant
[33] = test system: Glutamate receptor ionotropic, NMDA 2B (Homo sapiens), Q13224 [I641A]; assay: Inhibition of NR2B receptor M3c I641A mutant expressed in Xenopus oocytes assessed as NMDA current at 0.5 mM relative to control; type: cell-based; conditions: Oocyte
[34] = test system: Glutamate receptor ionotropic, NMDA 2B (Homo sapiens), Q13224 [A651T]; assay: Inhibition of NR2B receptor M3c A651T mutant expressed in Xenopus oocytes assessed as NMDA current at 0.5 mM relative to control; type: cell-based; conditions: Oocyte
[35] = test system: Glutamate receptor ionotropic, NMDA 2B (Homo sapiens), Q13224 [L643A,T647A]; assay: Binding affinity to NR2B receptor L643A/T647A mutant
[36] = Ratio of Kapp for wild type NR2B receptor to Kapp for NR2B receptor M3c L643A mutant
[37] = Ratio of Kapp for wild type NR2B receptor to Kapp for NR2B receptor T647A/K234A mutant
[38] = Ratio of Kapp for wild type NR2B receptor to Kapp for NR2B receptor M3c T647A mutant

Sequence of Glutamate receptor ionotropic, NMDA 2B (Homo sapiens), Q13224 [T103A] (Q13224 whole entry T103A): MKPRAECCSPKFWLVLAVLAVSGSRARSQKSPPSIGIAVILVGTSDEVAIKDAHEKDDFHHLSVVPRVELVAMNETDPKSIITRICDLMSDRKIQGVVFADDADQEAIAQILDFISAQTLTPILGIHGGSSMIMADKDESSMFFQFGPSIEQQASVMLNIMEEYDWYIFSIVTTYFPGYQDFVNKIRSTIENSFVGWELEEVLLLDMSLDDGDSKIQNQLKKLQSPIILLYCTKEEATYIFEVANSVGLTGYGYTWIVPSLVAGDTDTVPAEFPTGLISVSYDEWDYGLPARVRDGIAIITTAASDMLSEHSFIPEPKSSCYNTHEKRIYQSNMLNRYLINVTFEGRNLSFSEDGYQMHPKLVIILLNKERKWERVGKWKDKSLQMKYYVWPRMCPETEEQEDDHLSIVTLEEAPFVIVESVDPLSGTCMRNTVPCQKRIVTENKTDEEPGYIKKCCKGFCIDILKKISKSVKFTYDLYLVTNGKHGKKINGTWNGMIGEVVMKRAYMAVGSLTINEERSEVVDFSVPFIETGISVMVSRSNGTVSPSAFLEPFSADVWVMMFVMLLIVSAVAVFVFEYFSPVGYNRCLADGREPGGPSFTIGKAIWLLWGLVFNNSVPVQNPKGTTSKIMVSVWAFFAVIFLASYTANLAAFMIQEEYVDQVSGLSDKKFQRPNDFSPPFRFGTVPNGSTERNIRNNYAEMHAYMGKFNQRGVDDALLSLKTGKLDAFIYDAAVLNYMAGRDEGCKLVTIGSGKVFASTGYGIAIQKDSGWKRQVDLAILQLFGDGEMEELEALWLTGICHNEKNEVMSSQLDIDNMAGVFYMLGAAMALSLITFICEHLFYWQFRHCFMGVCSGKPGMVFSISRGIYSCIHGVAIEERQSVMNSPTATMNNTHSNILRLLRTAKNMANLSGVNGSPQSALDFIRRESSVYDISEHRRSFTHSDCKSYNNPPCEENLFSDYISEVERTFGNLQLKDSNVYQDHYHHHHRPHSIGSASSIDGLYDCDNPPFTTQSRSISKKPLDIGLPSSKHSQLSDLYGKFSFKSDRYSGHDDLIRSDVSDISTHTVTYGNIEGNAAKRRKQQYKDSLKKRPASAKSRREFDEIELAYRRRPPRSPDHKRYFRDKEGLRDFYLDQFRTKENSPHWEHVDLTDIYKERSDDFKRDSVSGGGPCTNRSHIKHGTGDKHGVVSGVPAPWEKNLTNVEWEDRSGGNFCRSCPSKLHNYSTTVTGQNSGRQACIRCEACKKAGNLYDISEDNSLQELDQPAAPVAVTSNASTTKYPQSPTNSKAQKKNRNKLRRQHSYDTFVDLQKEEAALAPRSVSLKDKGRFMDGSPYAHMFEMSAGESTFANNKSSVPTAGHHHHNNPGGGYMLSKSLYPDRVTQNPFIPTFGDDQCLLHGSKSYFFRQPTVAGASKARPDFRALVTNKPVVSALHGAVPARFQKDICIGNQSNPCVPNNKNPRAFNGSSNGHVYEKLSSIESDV
Sequence of Glutamate receptor ionotropic, NMDA 2B (Homo sapiens), Q13224 [V640A] (Q13224 whole entry V640A): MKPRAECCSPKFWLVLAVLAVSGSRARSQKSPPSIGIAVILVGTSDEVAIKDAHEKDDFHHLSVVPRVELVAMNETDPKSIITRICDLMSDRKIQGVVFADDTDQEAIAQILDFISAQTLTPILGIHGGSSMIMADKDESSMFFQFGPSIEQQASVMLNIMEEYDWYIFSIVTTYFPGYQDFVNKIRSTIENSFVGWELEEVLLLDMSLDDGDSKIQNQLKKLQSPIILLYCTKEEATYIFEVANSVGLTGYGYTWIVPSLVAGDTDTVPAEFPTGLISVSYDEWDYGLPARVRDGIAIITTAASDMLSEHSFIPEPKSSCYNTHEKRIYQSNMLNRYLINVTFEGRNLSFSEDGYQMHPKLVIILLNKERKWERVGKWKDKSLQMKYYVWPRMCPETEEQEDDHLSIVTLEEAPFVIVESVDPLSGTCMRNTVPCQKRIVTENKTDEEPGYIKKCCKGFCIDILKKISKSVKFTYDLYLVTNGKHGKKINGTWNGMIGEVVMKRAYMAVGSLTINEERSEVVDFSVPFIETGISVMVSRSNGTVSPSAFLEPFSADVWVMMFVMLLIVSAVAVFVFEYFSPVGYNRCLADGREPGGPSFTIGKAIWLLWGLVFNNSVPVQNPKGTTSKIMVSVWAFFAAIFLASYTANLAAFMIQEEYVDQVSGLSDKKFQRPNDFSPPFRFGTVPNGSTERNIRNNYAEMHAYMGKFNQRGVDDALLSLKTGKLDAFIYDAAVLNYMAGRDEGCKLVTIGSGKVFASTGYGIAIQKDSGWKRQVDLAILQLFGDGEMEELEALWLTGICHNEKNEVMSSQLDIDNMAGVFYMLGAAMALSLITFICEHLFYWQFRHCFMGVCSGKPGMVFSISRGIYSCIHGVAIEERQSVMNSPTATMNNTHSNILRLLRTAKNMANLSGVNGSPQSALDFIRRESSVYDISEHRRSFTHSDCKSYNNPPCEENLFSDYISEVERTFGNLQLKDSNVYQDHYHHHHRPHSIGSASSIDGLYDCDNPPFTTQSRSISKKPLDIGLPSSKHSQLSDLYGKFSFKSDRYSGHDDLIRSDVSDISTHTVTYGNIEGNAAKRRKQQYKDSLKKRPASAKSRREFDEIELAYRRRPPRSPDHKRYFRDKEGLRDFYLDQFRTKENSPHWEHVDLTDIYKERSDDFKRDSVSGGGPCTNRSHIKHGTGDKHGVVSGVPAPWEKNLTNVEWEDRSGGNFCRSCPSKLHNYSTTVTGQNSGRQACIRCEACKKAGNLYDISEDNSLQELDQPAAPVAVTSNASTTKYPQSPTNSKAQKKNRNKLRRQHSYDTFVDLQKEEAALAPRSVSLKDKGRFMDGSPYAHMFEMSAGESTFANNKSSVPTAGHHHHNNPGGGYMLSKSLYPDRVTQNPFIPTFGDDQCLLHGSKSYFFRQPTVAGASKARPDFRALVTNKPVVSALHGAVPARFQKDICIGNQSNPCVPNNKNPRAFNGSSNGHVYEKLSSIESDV
Sequence of Glutamate receptor ionotropic, NMDA 2B (Homo sapiens), Q13224 [L643A,S645A] (Q13224 whole entry L643A/S645A): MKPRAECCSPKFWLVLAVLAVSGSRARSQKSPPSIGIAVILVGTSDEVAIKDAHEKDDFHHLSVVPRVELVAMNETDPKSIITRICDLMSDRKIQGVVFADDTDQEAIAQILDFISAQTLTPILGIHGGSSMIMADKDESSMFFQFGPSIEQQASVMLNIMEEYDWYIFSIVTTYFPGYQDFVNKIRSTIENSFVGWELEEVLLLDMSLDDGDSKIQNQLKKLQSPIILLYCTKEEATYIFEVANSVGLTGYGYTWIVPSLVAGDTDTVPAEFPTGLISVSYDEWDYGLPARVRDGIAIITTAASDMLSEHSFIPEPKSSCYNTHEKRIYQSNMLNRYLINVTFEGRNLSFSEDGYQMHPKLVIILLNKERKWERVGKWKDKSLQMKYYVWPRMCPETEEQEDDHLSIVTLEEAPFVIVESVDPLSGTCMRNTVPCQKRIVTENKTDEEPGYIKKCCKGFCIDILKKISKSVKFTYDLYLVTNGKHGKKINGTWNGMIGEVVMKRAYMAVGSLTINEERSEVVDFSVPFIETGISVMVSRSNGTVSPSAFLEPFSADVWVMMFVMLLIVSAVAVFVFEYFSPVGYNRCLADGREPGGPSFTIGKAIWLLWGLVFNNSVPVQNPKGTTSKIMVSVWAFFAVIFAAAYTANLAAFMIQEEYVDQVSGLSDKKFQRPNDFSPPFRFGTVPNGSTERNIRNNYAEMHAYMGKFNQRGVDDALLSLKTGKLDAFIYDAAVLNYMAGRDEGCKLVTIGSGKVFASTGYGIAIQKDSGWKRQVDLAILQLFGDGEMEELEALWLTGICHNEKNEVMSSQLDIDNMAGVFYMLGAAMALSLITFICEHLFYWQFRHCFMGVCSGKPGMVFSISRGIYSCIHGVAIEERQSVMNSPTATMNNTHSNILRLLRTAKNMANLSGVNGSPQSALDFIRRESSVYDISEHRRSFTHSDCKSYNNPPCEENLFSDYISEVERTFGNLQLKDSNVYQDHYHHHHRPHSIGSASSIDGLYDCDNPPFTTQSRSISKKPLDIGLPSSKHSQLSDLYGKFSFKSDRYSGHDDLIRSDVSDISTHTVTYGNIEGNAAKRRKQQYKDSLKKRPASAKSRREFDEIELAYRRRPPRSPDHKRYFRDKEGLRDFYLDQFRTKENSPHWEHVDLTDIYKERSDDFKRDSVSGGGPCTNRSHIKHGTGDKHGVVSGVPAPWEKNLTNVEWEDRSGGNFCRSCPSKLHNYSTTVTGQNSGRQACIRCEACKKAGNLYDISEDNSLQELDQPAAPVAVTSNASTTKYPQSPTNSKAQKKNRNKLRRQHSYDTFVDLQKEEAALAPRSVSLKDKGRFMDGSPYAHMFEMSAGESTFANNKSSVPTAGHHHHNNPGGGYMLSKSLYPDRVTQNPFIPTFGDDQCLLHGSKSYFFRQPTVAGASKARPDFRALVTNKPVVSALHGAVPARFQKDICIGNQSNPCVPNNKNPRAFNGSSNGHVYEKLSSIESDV

- inhibition [1]: 75%
- Ratio Ki(app) [2]: 7.7
- Kapp [3]: 4.31 mM
- Kapp [4]: 4.21 mM
- Ratio Ki(app) [5]: 8.2
- inhibition [6]: 61%
- Ratio Ki(app) [7]: 4.8
- Ratio Ki(app) [8]: 3.2
- Ratio Ki(app) [9]: 5.8
- Kapp [10]: 6.68 mM
- inhibition [11]: 85%
- inhibition [12]: 73%
- Kapp [13]: 5.64 mM
- inhibition [14]: 84%
- inhibition [15]: 71%
- Kapp [16]: 7 mM
- Kapp [17]: 6.33 mM
- Activity [18]: inactive
- Ratio Ki(app) [19]: 40
- inhibition [20]: 74%
- inhibition [21]: 74%
- Kapp [22]: 0.87 mM
- Kapp [23]: 18.6 mM
- Ratio Ki(app) [24]: 3.2
- inhibition [25]: 90%
- inhibition [26]: 73%
- inhibition [27]: 73%
- Ratio Ki(app) [28]: 21
- Ratio Ki(app) [29]: 2.5
- inhibition [30]: 76%
- Kapp [31]: 4.43 mM
- Ratio Ki(app) [32]: 7.3
- inhibition [33]: 84%
- inhibition [34]: 72%
- Kapp [35]: 34.5 mM
- Ratio Ki(app) [36]: 6.5
- Ratio Ki(app) [37]: 8
- Ratio Ki(app) [38]: 7.5
Compound: NC(=O)OCC(COC(N)=O)c1ccccc1

Source: ChEMBL document CHEMBL1144021, “Molecular determinants of the anticonvulsant felbamate binding site in the N-methyl-D-aspartate receptor” (J Med Chem, 2008)
